Measurements taken from US12697330B2, “Therapeutic methods using vadadustat” (Akebia Therapeutics, Inc., priority 2021, dated 2026).

Assays:
erythropoietin (EPO) [1] = assay: Phase 2 study, Main Study: pharmacodynamics, Baseline-Unadjusted serum EPO concentration; assay type: in vivo, human
Experimental: PK/PD Endpoints. An exposure-response analysis of vadadustat and PD measures were conducted as deemed appropriate. The PK parameters included (but were not limited to) the following: area under concentration-time curve from dosing to last measurable concentration (AUClast), area under concentration-time curve from dosing to infinity (AUCinf), Cmax, apparent total body clearance (CL/F), apparent volume of distribution (Vd/F), and terminal half-life (t1/2). The PD parameters included (but were not limited to) the following: EPO, reticulocytes, iron, ferritin, TIBC, and hepcidin.
PK population: included all randomized subjects who received study drug (vadadustat or epoetin alfa) and had enough drug concentrations to estimate AUC and Cmax. Analysis of this population was based on the dose amount taken at the date of PK sampling for the vadadustat group.
PD parameters for serum EPO concentration are presented by epoetin alfa stratification for vadadustat treatment groups in Table 7, Table 8a and Table 8b (baseline-unadjusted) and Table 9, Table 10a and Table 10b (baseline-adjusted).

erythropoietin (EPO) [2] = assay: Phase 1b study: pharmacodynamics, Baseline-unadjusted serum EPO concentration; assay type: in vivo, human
Experimental: PK and EPO Sample. For each vadadustat treatment group, blood samples for vadadustat PK (and its metabolites) and EPO were collected at the following time points: Day 1: predose, and at 1, 2, 3, 4, 5, 8, and 11 hours post dose; Day 2: 24 hours (−2 hours) post Day 1 dose; Day 6: blood sample for EPO analysis only was collected predose on Day 6; Day 8: predose, and at 1, 2, 3, 4, 5, 8, 11 hours post dose, Day 10 or EOT: predose. For the ESA treatment group, blood samples for analysis of EPO were collected at the following time points: Day 1: predose, and at 0.25, 1, 2, 3, 4, 5, 8, and 11 hours post dose; Day 2: 24 hours (−2 hours) post Day 1 dose.
PD Sampling. For all vadadustat and ESA treatment groups, in addition to EPO, blood samples for Hb, reticulocytes and iron indices for PD analyses were collected on Day 1, Day 6 and Day 10. Hepcidin were collected predose on Day 1, Day 6, and Day 10 for PD analysis.
Secondary Endpoints. For each treatment group, PD parameters included, but were not limited to, as deemed appropriate: hepcidin, erythropoietin (EPO), iron indices (iron, ferritin, total iron-binding capacity [TIBC], TSAT), Hb, and reticulocytes.
The summary of serum concentration of Baseline-unadjusted EPO by time for the vadadustat treatment groups in the PK population are presented in FIGS. 1a-11b and FIGS. 12a-12b. The summary of PD parameters for Baseline-unadjusted serum EPO concentration for vadadustat treatment groups by dosing days for the PK population are summarized in Table 2.

[3] = Vada 600 mg, Week 1 + 1, High Epoetin Alfa Stratum >90 to <300 U/kg/week
[4] = Vada 600 mg, Week 1, High Epoetin Alfa Stratum >90 to <300 U/kg/week
[5] = Vada 600 mg, Week 11, High Epoetin Alfa Stratum >90 to <300 U/kg/week
[6] = Vada 600 mg, Week 11, Low Epoetin Alfa Stratum ≤90 U/kg/week
[7] = Vada 600 mg, Week 13, High Epoetin Alfa Stratum >90 to <300 U/kg/week
[8] = Vada 600 mg, Week 13, Low Epoetin Alfa Stratum ≤90 U/kg/week
[9] = Vada 750 mg, Week 11, High Epoetin Alfa Stratum >90 to <300 U/kg/week
[10] = Vada 750 mg, Week 11, Low Epoetin Alfa Stratum ≤90 U/kg/week
[11] = Vada 750 mg, Week 13, High Epoetin Alfa Stratum >90 to <300 U/kg/week
[12] = Vada 750 mg, Week 13, Low Epoetin Alfa Stratum ≤90 U/kg/week
[13] = Vada 900 mg, Week 11, High Epoetin Alfa Stratum >90 to <300 U/kg/week
[14] = Vada 900 mg, Week 11, Low Epoetin Alfa Stratum ≤90 U/kg/week

Structure (SMILES): O=C(O)CNC(=O)c1ncc(-c2cccc(Cl)c2)cc1O [Compound 1, {[5-(3-chlorophenyl)-3-hydroxypyridine-2-carbonyl]amino}acetic acid]
- Baseline-Unadjusted serum EPO AUC0-5, Geometric Mean (erythropoietin (EPO) [1]; [3]): 89.9 µg·h/mL
- Baseline-Unadjusted serum EPO Cmax, Geometric Mean (erythropoietin (EPO) [1]; [3]): 27.2 µg/mL
- Baseline-Unadjusted serum EPO Tmax, Median (erythropoietin (EPO) [1]; [3]): 2.47 h
- Baseline-Unadjusted serum EPO AUC0-5, Geometric Mean (erythropoietin (EPO) [1]; [4]): 102.0 µg·h/mL
- Baseline-Unadjusted serum EPO Cmax, Geometric Mean (erythropoietin (EPO) [1]; [4]): 33.2 µg/mL
- Baseline-Unadjusted serum EPO Tmax, Median (erythropoietin (EPO) [1]; [4]): 0 h
- Baseline-Unadjusted serum EPO AUC0-5, Geometric Mean (erythropoietin (EPO) [1]; [5]): 83.2 µg·h/mL
- Baseline-Unadjusted serum EPO Cmax, Geometric Mean (erythropoietin (EPO) [1]; [5]): 23.4 µg/mL
- Baseline-Unadjusted serum EPO Tmax, Median (erythropoietin (EPO) [1]; [5]): 0.92 h
- Baseline-Unadjusted serum EPO AUC0-5, Geometric Mean (erythropoietin (EPO) [1]; [6]): 53.8 µg·h/mL
- Baseline-Unadjusted serum EPO Cmax, Geometric Mean (erythropoietin (EPO) [1]; [6]): 18.5 µg/mL
- Baseline-Unadjusted serum EPO Tmax, Median (erythropoietin (EPO) [1]; [6]): 4.50 h
- Baseline-Unadjusted serum EPO AUC0-5, Geometric Mean (erythropoietin (EPO) [1]; [7]): 44.0 µg·h/mL
- Baseline-Unadjusted serum EPO Cmax, Geometric Mean (erythropoietin (EPO) [1]; [7]): 49.9 µg/mL
- Baseline-Unadjusted serum EPO Tmax, Median (erythropoietin (EPO) [1]; [7]): 4.63 h
- Baseline-Unadjusted serum EPO AUC0-5, Geometric Mean (erythropoietin (EPO) [1]; [8]): 59.4 µg·h/mL
- Baseline-Unadjusted serum EPO Cmax, Geometric Mean (erythropoietin (EPO) [1]; [8]): 20.7 µg/mL
- Baseline-Unadjusted serum EPO Tmax, Median (erythropoietin (EPO) [1]; [8]): 7.08 h
- Baseline-Unadjusted serum EPO AUC0-5, Geometric Mean (erythropoietin (EPO) [1]; [9]): 84.6 µg·h/mL
- Baseline-Unadjusted serum EPO Cmax, Geometric Mean (erythropoietin (EPO) [1]; [9]): 21.9 µg/mL
- Baseline-Unadjusted serum EPO Tmax, Median (erythropoietin (EPO) [1]; [9]): 4.06 h
- Baseline-Unadjusted serum EPO AUC0-5, Geometric Mean (erythropoietin (EPO) [1]; [10]): 41.3 µg·h/mL
- Baseline-Unadjusted serum EPO Cmax, Geometric Mean (erythropoietin (EPO) [1]; [10]): 12.5 µg/mL
- Baseline-Unadjusted serum EPO Tmax, Median (erythropoietin (EPO) [1]; [10]): 4.50 h
- Baseline-Unadjusted serum EPO AUC0-5, Geometric Mean (erythropoietin (EPO) [1]; [11]): 42.9 µg·h/mL
- Baseline-Unadjusted serum EPO Cmax, Geometric Mean (erythropoietin (EPO) [1]; [11]): 14.1 µg/mL
- Baseline-Unadjusted serum EPO Tmax, Median (erythropoietin (EPO) [1]; [11]): 0 h
- Baseline-Unadjusted serum EPO AUC0-5, Geometric Mean (erythropoietin (EPO) [1]; [12]): 40.8 µg·h/mL
- Baseline-Unadjusted serum EPO Cmax, Geometric Mean (erythropoietin (EPO) [1]; [12]): 13.2 µg/mL
- Baseline-Unadjusted serum EPO Tmax, Median (erythropoietin (EPO) [1]; [12]): 4.50 h
- Baseline-Unadjusted serum EPO AUC0-5, Geometric Mean (erythropoietin (EPO) [1]; [13]): 96.5 µg·h/mL
- Baseline-Unadjusted serum EPO Cmax, Geometric Mean (erythropoietin (EPO) [1]; [13]): 30.2 µg/mL
- Baseline-Unadjusted serum EPO Tmax, Median (erythropoietin (EPO) [1]; [13]): 0 h
- Baseline-Unadjusted serum EPO AUC0-5, Geometric Mean (erythropoietin (EPO) [1]; [14]): 81.0 µg·h/mL
- Baseline-Unadjusted serum EPO Cmax, Geometric Mean (erythropoietin (EPO) [1]; [14]): 24.4 µg/mL
- Baseline-Unadjusted serum EPO Tmax, Median (erythropoietin (EPO) [1]; [14]): 0 h
- Baseline-Unadjusted serum EPO Tmax, Median (erythropoietin (EPO) [2]; Vada 600 mg QD, Day 1): 10.09 h
- Baseline-unadjusted serum EPO AUC0-11, Mean (SD) (erythropoietin (EPO) [2]; Vada 600 mg QD, Day 1): 319 (150) h · mU/mL
- Baseline-Unadjusted serum EPO Tmax, Median (erythropoietin (EPO) [2]; Vada 600 mg QD, Day 8): 4.50 h
- Baseline-unadjusted serum EPO AUC0-11, Mean (SD) (erythropoietin (EPO) [2]; Vada 600 mg QD, Day 8 (AUClast)): 410 (286) h · mU/mL
- Baseline-Unadjusted serum EPO Tmax, Median (erythropoietin (EPO) [2]; Vada 750 mg QD, Day 1): 10.94 h
- Baseline-unadjusted serum EPO AUC0-11, Mean (SD) (erythropoietin (EPO) [2]; Vada 750 mg QD, Day 1): 569 (623) h · mU/mL
- Baseline-Unadjusted serum EPO Tmax, Median (erythropoietin (EPO) [2]; Vada 750 mg QD, Day 8): 5.01 h
- Baseline-unadjusted serum EPO AUC0-11, Mean (SD) (erythropoietin (EPO) [2]; Vada 750 mg QD, Day 8 (AUClast)): 677 (533) h · mU/mL
- Baseline-Unadjusted serum EPO Tmax, Median (erythropoietin (EPO) [2]; Vada 900 mg QD, Day 1): 10.00 h
- Baseline-unadjusted serum EPO AUC0-11, Mean (SD) (erythropoietin (EPO) [2]; Vada 900 mg QD, Day 1): 455 (438) h · mU/mL
- Baseline-Unadjusted serum EPO Tmax, Median (erythropoietin (EPO) [2]; Vada 900 mg QD, Day 8): 10.00 h
- Baseline-unadjusted serum EPO AUC0-11, Mean (SD) (erythropoietin (EPO) [2]; Vada 900 mg QD, Day 8 (AUClast)): 981 (1854) h · mU/mL
